Measurements: US8871680B2, “Herbicidal compositions comprising 4-amino-3-chloro-5-fluoro-6-(4-chloro-2-fluoro-3-methoxyphenyl) pyridine-2-carboxylic acid or a derivative thereof and a di-methoxy-pyrimidine and derivatives thereof” (Dow AgroSciences LLC, priority 2012, dated 2014)

Legend:
LEFCH [1] = assay: Postemergence foliar-applied weed control, direct seeded rice (greenhouse); type: in vivo, Leptochloa chinensis (L.) Nees
Description: Seeds or nutlets of the desired test plant species were planted in a soil matrix prepared by mixing a loam or sandy loam soil (e.g., 28.6 percent silt, 18.8 percent clay, and 52.6 percent sand, with a pH of about 5.8 and an organic matter content of about 1.8 percent) and calcareous grit in an 80 to 20 ratio. The soil matrix was contained in plastic pots with a volume of 1 quart and a surface area of 83.6 square centimeters (cm^2). When required to ensure good germination and healthy plants, a fungicide treatment and/or other chemical or physical treatment was applied. The plants were grown for 8-22 days in a greenhouse with an approximate 14 hr photoperiod which was maintained at about 29° C. during the day and 26° C. during the night. Nutrients (Peters Excel® 15-5-15 5-Ca 2-Mg and iron chelate) were applied in the irrigation solution as needed and water was added on a regular basis. Supplemental lighting was provided with overhead metal halide 1000-Watt lamps as necessary. The plants were employed for testing when they reached the first through fourth true leaf stage.
Treatments consisted of the acid or esters of 4-amino-3-chloro-5-fluoro-6-(4-chloro-2-fluoro-3-methoxy-phenyl)pyridine-2-carboxylic acid (Compound A), each formulated as an SC (suspension concentrate), and various herbicidal components alone and in combination. Forms of compound A were applied on an acid equivalent basis.
Other herbicidal components were applied on an active ingredient basis and included the dimethoxy-pyrimidine acid acetolactate synthase (ALS)-inhibiting herbicides bispyribac-sodium formulated as Regiment® 80WP, pyribenzoxim (technical grade material), pyriminobac-methyl formulated as Hie-Clean® 1.2% GR dissolved in water, and pyriftalid (technical grade material).
Treatment requirements were calculated based upon the rates being tested, the concentration of active ingredient or acid equivalent in the formulation, and a 12 mL application volume at a rate of 187 L/ha.
For treatments comprised of formulated compounds, measured amounts of compounds were placed individually in 25 mL glass vials and diluted in a volume of 1.25% (v/v) Agri-Dex® crop oil concentrated to obtain 12× stock solutions. […] Application solutions were prepared by adding an appropriate amount of each stock solution (e.g., 1 mL) and diluted to the appropriate final concentrations with the addition of 10 mL of an aqueous mixture of 1.25% (v/v) crop oil concentrate so that the final spray solutions contained 1.25+/−0.005% (v/v) crop oil concentrate.
For treatments comprised of technical compounds, weighed amounts can be placed individually in 25 mL glass vials and dissolved in a volume of 97:3 v/v acetone/DMSO to obtain 12× stock solutions. […] Application solutions can be prepared by adding an appropriate amount of each stock solution (e.g., 1 mL) and diluted to the appropriate final concentrations with the addition of 10 mL of an aqueous mixture of 1.5% (v/v) crop oil concentrate so that the final spray solutions contain 1.25% (v/v) crop oil concentrate. When technical materials are used, the concentrated stock solutions can be added to the spray solutions so that the final acetone and DMSO concentrations of the application solutions are 16.2% and 0.5%, respectively.
For treatments comprised of formulated and technical compounds, weighed amounts of the technical materials were placed individually in 25 mL glass vials and dissolved in a volume of 97:3 v/v acetone/DMSO to obtain 12× stock solutions, and measured amounts of the formulated compounds were placed individually in 25 mL glass vials and diluted in a volume of 1.5% (v/v) crop oil concentrate or water to obtain 12× stock solutions. […]

ECHCG = assay: In-water applied weed control, transplanted paddy rice (greenhouse); type: in vivo, Echinochloa crusgalli (L.) Beauv.
Experimental: (§1) Weed seeds or nutlets of the desired test plant species were planted in puddled soil (mud) prepared by mixing a shredded, non-sterilized mineral soil (50.5 percent silt, 25.5 percent clay, and 24 percent sand, with a pH of about 7.6 and an organic matter content of about 2.9 percent) and water at a 1:1 volumetric ratio. The prepared mud was dispensed in 365 mL aliquots into 16-ounce (oz.) non-perforated plastic pots with a surface area of 86.59 square centimeters (cm^2) leaving a headspace of 3 centimeters (cm) in each pot. Mud was allowed to dry overnight prior to planting or transplanting. Rice seeds were planted in Sun Gro MetroMix® 306 planting mixture, which typically has a pH of 6.0 to 6.8 and an organic matter content of about 30 percent, in plastic plug trays. Seedlings at the second or third leaf stage of growth were transplanted into 860 mL of mud contained in 32-oz. non-perforated plastic pots with a surface area of 86.59 cm^2 4 days prior to herbicide application. The paddy was created by filling the headspace of the pots with 2.5 to 3 cm of water. When required to ensure good germination and healthy plants, a fungicide treatment and/or other chemical or physical treatment was applied. The plants were grown for 4-22 days in a greenhouse with an approximate 14 hr photoperiod which was maintained at about 29′C during the day and 26° C. during the night. Nutrients were added as Osmocote® (19:6:12, N:P:K+minor nutrients) at 2 g per 16-oz. pot and 4 g per 32-oz. pot. Water was added on a regular basis to maintain the paddy flood, and supplemental lighting was provided with overhead metal halide 1000-Watt lamps as necessary. The plants were employed for testing when they reached the first through fourth true leaf stage.
(§2) Treatments consisted of the acid or esters of 4-amino-3-chloro-5-fluoro-6-(4-chloro-2-fluoro-3-methoxy-phenyl)pyridine-2-carboxylic acid (compound A) each formulated as an SC and various herbicidal components alone and in combination. Forms of compound A were applied on an acid equivalent basis.
(§3) Other herbicidal components were applied on an active ingredient basis and included the dimethoxy-pyrimidine acid acetolactate synthase (ALS)-inhibiting herbicides bispyribac-sodium formulated as Regiment® 80 WP, pyriminobac-methyl formulated as Hie Clean®, and pyriftalid (technical grade material).
(§4) Treatment requirements for each compound or herbicidal component were calculated based upon the rates being tested, the concentration of active ingredient or acid equivalent in the formulation, an application volume of 2 mL per component per pot, and an application area of 86.59 cm^2 per pot.
(§5) For formulated compounds, a measured amount was placed in an individual 100 or 200 mL glass vial and was dissolved in a volume of 1.25% (v/v) Agri-Dex® crop oil concentrate to obtain application solutions.
(§6) For technical grade compounds, a weighed amount was placed in an individual 100 to 200 mL glass vial and was dissolved in a volume of acetone to obtain concentrated stock solutions. […] The concentrated stock solutions obtained were diluted with an equivalent volume of an aqueous mixture containing 2.5% (v/v) crop oil concentrate so that the final application solutions contained 1.25% (v/v) crop oil concentrate.
(§7) Applications were made by injecting with a pipetter appropriate amounts of the application solutions, individually and sequentially, into the aqueous layer of the paddy.
(§8) Control plants were treated in the same manner with the solvent blank. Applications were made so that all treated plant material received the same concentrations of acetone and crop oil concentrate.
(§9) The treated plants and control plants were placed in a greenhouse as described above and water was added as needed to maintain a paddy flood. […]

ECHOR = assay: as above; type: in vivo, Echinochloa oryzoides (Ard.) Fritsch; settings: 40 gai/ha
Experimental: as §1, §2, §3, §4, §5, §6, §7
(§10) Control plants were treated in the same manner with the solvent blank. […]

LEFCH [2] = assay: as above; type: in vivo, Leptochloa chinensis (L.) Nees; settings: 40 gai/ha
Experimental: as §1, §2, §3, §4, §5, §6, §7, §10

SCPMA = assay: as above; type: in vivo, Bolboschoenus maritimus (L.) Palla; settings: 40 gai/ha
Experimental: as §1, §2, §3, §4, §5, §6, §7, §8, §9

CYPRO = assay: as above; type: in vivo, Cyperus rotundus L.
Experimental: as §1, §2, §3, §4, §5, §6, §7, §8, §9

SMILES: COc1cc(OC)nc(Oc2cccc(Oc3nc(OC)cc(OC)n3)c2C(=O)[O-])n1.[Na+] [Bispyribac-Sodium, sodium 2,6-bis[(4,6-dimethoxy-2-pyrimidinyl)oxy]benzoate, reference compound]
- Visual Weed Control (%)-20 DAA LEFCH Obs (LEFCH [1]; 7 gai/ha): 0%
- Visual Weed Control (%)-20 DAA LEFCH Obs (LEFCH [1]; 14 gai/ha): 0%
- Visual Weed Control (%) - 20 DAA ECHCG Obs (ECHCG; 10 gai/ha): 20%
- Visual Weed Control (%) - 20 DAA ECHCG Obs (ECHCG; 20 gai/ha): 35%
- Visual Weed Control (%) - 20 DAA ECHCG Obs (ECHCG; 40 gai/ha): 30%
- Visual Weed Control (%)-20 DAA ECHOR Obs (ECHOR; Table 7): 30%
- Visual Weed Control (%)-20 DAA ECHOR Obs (ECHOR; Table 9): 30%
- Visual Weed Control (%)-20 DAA LEFCH Obs (LEFCH [2]): 28%
- Visual Weed Control (%)-20 DAA SCPMA Obs (SCPMA; Table 7): 38%
- Visual Weed Control (%)-20 DAA SCPMA Obs (SCPMA; Table 8): 38%
- Visual Weed Control (%)-20 DAA SCPMA Obs (SCPMA; Table 9): 38%
- Visual Weed Control (%)-20 DAA CYPRO Obs (CYPRO; 10 gai/ha): 0%
- Visual Weed Control (%)-20 DAA CYPRO Obs (CYPRO; 20 gai/ha): 0%
